According to article PMC5943945, “Design, Synthesis and Cytotoxic Evaluation of Novel Chalcone Derivatives Bearing Triazolo[4,3-a]-quinoxaline Moieties as Potent Anticancer Agents with Dual EGFR Kinase and Tubulin Polymerization Inhibitory Effects” (Molecules : A Journal of Synthetic Chemistry and Natural …, 2017):
Several values for one entry are separate records, joined by “and”; a condition that tells them apart may be missing. Equal entries are not always repeated. Where two headings read alike, the source gives them in different places.

Columns and labels:
[1] = tested on: HCT-116; experiment: MTT cytotoxicity assay, HCT-116; assay type: cell-based; conditions: Homo sapiens, 72 h exposure, mean ± SD
Description: (§1) The newly synthesized chalcone compounds 7a–k were evaluated for their in vitro anticancer activity against three cancer cell lines—HCT-116, MCF-7 and HepG-2—according to the MTT assay method using doxorubicin as reference drug.
(§2) The in vitro anticancer activities of the selected chalcone compounds against three cancer cell lines: human colon carcinoma (HCT-116), human hepatocellular carcinoma (HEPG-2), and human breast adenocarcinoma (MCF-7) were evaluated as described with some modifications. Target tumor cells were grown to log phase in DMEM medium supplemented with 10% fetal bovine serum. After diluting to 1 × 10^5 cells mL^−1 with the medium, 100 μL of the obtained cell suspension was added to each well of 96-well culture plates. Subsequently, incubation was performed at 37 °C in 5% CO2 atmosphere for 48 h before the cytotoxicity assessment. Tested samples at preset concentrations were added to 6 wells with doxorubicin being employed as a positive reference. After 72 h exposure period, 25 μL of PBS containing 2.5 mg mL^−1 of MTT was added to each well. After 4 h, the medium was replaced by 150 μL DMSO to dissolve the purple formazan crystals produced. The absorbance at 570 nm of each well was measured with an ELISA plate reader. The data represented the mean of three independent experiments in triplicate and were expressed as means ± SD.

[2] = tested on: MCF-7; experiment: MTT cytotoxicity assay, MCF-7; assay type: cell-based; conditions: Homo sapiens, MCF7, 72 h exposure, mean ± SD
Description: as §1, §2

[3] = tested on: HepG-2; experiment: MTT cytotoxicity assay, HepG-2; assay type: cell-based; conditions: Homo sapiens, HepG2, 72 h exposure, mean ± SD
Description: as §1, §2

[4] = molecular target: T1, EGFR TK (Homo sapiens, UniProt P00533); experiment: EGFR inhibition assay (HTScan EGFR kinase assay kit); assay type: biochemical; conditions: averages of three independent experiments; compounds tested at concentration of 10 μM; 400 μM ATP
T1 construct: purchased Cell Signaling Technology
Description: As the designed compounds had good antiproliferative activity, in vitro EGFR inhibition capability was firstly evaluated for the target cytotoxic derivatives to see whether their cytotoxicity was mediated by kinase inhibition. […]. EGFR kinase activity was assessed using HTScan EGFR kinase assay kits (Cell Signaling Technology, Danvers, MA, USA). The experiments were performed according to the manufacturer’s instructions. […] Phosphorylated substrate was captured with strapavidin-coated 96-well plates. The level of phosphorylation was monitored by anti-phosphotyrosine and europium-labeled secondary antibodies (DELFIA, Perkin-Elmer, Akron, OH, USA). The enhancement solution was added at the end of the assay and enzyme activity was measured in a Victor II 1420 microplate reader (Wallac, Boston, MA, USA) at […].

[5] = molecular target: T2, tubulin (Homo sapiens, UniProt P07437+P68363); experiment: Tubulin polymerization / ELISA for Tubulin Beta (TUBb) in HCT-116 cells; assay type: cell-based
T2 construct: The HCT-116 cell line was obtained from the American Type Culture Collection; endogenous in cells; host or cells: HCT-116
Description: Tubulin is the principal component of the eukaryotic cytoskeleton and participates in several crucial cellular processes, including cell replication.
Plate cells (cells density 1.2–1.8 × 10^3 cells/well) in a volume of […] complete growth medium and […] of the tested compound per well in a 96-well plate for 18–24 h before the enzyme assay for tubulin. […] Standards or samples are then added to the appropriate microtiter plate wells with a biotin-conjugated antibody specific to TUBb. Next, avidin conjugated to horseradish peroxidase (HRP) is added to each microplate well and incubated. […] The enzyme-substrate reaction is terminated by the addition of sulphuric acid solution and the color change is measured spectrophotometrically at a wavelength of 450 ± 10 nm. The concentration of TUBb in the samples is then determined by comparing the O.D. of the samples to the standard curve.

[6] = tested on: HCT-116, MCF-7 and HepG-2; experiment: MTT cytotoxicity, statements across the three cell lines; assay type: cell-based, human; conditions: for anticancer activity in words: three cell lines, MTT; for IC50: Homo sapiens, range over HCT-116, MCF-7, HepG-2, read-out: IC50 against the three cell lines (range given)
Description: as §1, §2

[7] = averages of two independent experiments, read-out: Tubulin Polymerization (IC50 µM)

T1 sequence (P00533 25-1210): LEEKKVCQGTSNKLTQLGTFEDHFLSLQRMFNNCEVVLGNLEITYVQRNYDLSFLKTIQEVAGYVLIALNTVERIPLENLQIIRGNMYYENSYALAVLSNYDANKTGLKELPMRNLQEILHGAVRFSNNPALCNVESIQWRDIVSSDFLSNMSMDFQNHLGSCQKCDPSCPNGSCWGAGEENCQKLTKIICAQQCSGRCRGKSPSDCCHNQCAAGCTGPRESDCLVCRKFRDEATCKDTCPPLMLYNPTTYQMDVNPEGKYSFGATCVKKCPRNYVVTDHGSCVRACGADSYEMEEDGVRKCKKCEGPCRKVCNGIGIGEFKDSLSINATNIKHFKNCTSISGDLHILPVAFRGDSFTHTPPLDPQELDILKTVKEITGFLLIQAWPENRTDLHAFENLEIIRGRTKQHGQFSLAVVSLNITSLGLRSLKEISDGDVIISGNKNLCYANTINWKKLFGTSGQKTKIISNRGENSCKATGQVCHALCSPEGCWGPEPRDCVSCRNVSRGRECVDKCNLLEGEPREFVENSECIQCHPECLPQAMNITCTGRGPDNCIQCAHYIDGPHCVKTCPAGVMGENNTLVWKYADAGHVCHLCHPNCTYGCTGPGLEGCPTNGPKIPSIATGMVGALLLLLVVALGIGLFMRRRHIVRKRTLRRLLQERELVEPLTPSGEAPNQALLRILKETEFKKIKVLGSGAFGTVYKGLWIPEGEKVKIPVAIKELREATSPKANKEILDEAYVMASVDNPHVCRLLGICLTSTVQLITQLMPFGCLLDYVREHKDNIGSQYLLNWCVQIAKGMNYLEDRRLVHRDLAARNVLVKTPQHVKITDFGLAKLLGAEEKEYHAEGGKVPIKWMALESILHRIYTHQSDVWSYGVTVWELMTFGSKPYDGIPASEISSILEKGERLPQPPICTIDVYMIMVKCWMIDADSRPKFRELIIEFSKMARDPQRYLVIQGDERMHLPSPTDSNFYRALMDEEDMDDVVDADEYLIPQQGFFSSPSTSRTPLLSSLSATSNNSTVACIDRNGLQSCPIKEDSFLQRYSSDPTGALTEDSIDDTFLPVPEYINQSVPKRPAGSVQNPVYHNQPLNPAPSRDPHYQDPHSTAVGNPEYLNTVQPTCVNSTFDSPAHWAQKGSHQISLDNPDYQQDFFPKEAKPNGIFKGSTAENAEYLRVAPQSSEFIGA
T2 sequence (P07437 whole entry): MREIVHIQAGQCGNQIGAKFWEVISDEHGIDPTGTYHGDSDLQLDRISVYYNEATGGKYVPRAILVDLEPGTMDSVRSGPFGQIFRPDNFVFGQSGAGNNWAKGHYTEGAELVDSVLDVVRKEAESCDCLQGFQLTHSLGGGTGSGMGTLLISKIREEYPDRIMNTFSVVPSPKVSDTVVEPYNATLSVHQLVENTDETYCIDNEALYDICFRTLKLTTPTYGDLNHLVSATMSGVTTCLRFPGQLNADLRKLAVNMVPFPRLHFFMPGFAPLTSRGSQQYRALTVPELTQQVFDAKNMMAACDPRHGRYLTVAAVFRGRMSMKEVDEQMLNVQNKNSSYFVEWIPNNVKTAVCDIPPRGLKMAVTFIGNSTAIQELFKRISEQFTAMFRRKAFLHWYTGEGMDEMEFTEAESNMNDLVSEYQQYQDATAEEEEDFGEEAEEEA
T2 sequence (P68363 whole entry): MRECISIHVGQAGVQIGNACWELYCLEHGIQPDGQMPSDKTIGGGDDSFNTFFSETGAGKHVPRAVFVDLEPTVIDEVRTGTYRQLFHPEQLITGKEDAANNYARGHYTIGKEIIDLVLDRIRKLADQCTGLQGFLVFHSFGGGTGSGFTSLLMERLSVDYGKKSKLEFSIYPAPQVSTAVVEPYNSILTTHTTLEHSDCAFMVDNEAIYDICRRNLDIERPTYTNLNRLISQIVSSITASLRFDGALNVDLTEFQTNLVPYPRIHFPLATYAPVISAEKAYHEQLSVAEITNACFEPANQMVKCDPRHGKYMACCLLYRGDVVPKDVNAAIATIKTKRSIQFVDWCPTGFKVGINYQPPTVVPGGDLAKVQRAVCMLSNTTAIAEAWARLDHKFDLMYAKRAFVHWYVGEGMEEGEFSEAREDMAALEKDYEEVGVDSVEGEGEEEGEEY

| SMILES | melting point | IC50 [4] | IC50 [5, 7] | IC50 ([5]; abstract text, read-out: antitubulin polymerization activity (abstract)) | IC50 [1] | IC50 [2] | IC50 [3] | anticancer activity in words [6] | IC50 [6] |
| --- | --- | --- | --- | --- | --- | --- | --- | --- | --- |
| CCc1nnc2c(Cl)nc3ccccc3n12 [Compound 5, 4-Chloro-1-ethyl-[1,2,4]triazolo[4,3-a]quinoxaline] | 158 to 160 °C |  |  |  | 236 ± 0.1 µM | 246 ± 0.13 µM | 322 ± 0.15 µM |  |  |
| CCc1nnc2c(Nc3ccc(C(C)=O)cc3)nc3ccccc3n12 [Compound 6, 1-(4-((1-ethyl-[1,2,4]triazolo[4,3-a]quinoxalin-4-yl)amino)phenyl)ethan-1-one] | 235 to 237 °C |  |  |  | 411 ± 0.21 µM | 410 ± 0.25 µM | 446 ± 0.2 µM |  |  |
| CCc1nnc2c(Nc3ccc(C(=O)/C=C/c4ccc(C)cc4)cc3)nc3ccccc3n12 [Compound 7d, (E)-1-(4-((1-Ethyl-[1,2,4]triazolo[4,3-a]quinoxalin-4-yl)amino)phenyl)-3-(p-tolyl)prop-2-en-1-one] | 247 to 249 °C | > 100 µM |  |  | > 100 µM | 93.4 ± 0.14 µM | > 100 µM | low activity |  |
| CCc1nnc2c(Nc3ccc(C(=O)/C=C/c4ccc(Cl)cc4Cl)cc3)nc3ccccc3n12 [Compound 7j, (E)-3-(2,4-Dichlorophenyl)-1-(4-((1-ethyl-[1,2,4]triazolo[4,3-a]quinoxalin-4-yl)amino)phenyl)prop-2-en-1-one] | 250 to 252 °C | > 100 µM | > 100 µM |  | > 100 µM | > 100 µM | > 100 µM |  |  |
| CCc1nnc2c(Nc3ccc(C(=O)/C=C/c4c(Cl)cccc4Cl)cc3)nc3ccccc3n12 [Compound 7k, (E)-3-(2,6-Dichlorophenyl)-1-(4-((1-ethyl-[1,2,4]triazolo[4,3-a]quinoxalin-4-yl)amino)phenyl)prop-2-en-1-one] | 250 to 252 °C | > 100 µM | > 100 µM |  | 19.7 ± 0.25 µM | > 100 µM | > 100 µM |  |  |
| COc1cccc2c1C(=O)c1c(O)c3c(c(O)c1C2=O)C[C@@](O)(C(=O)CO)C[C@@H]3O[C@H]1C[C@H](N)[C@H](O)[C@H](C)O1 [Doxorubicin, reference compound] |  |  |  |  | 1.55 ± 0.03 µM | 0.27 ± 0.08 µM | 0.22 ± 0.01 µM |  |  |

Further lines, with some results ahead:

| melting point | IC50 [4] | IC50 [5, 7] | IC50 ([5]; abstract text, read-out: antitubulin polymerization activity (abstract)) | SMILES | IC50 [1] | IC50 [2] | IC50 [3] | anticancer activity in words [6] | IC50 [6] |
| --- | --- | --- | --- | --- | --- | --- | --- | --- | --- |
| 260 to 262 °C | 0.661 ± 0.00011 µM | 77.1 ± 0.21 µM |  | CCc1nnc2c(Nc3ccc(C(=O)/C=C/c4ccccc4)cc3)nc3ccccc3n12 [Compound 7a, (E)-1-(4-((1-Ethyl-[1,2,4]triazolo[4,3-a]quinoxalin-4-yl)amino)phenyl)-3-phenylprop-2-en-1-one] | 57.49 ± 0.29 µM | 58.92 ± 0.32 µM | 105.2 ± 0.5 µM | did not show significant activity |  |
| 264 to 266 °C | 0.127 to 0.136 µM and 0.127 µM | 18.1 ± 0.3 µM |  | CCc1nnc2c(Nc3ccc(C(=O)/C=C/c4ccccc4OC)cc3)nc3ccccc3n12 [Compound 7b, (E)-1-(4-((1-Ethyl-[1,2,4]triazolo[4,3-a]quinoxalin-4-yl)amino)phenyl)-3-(2-methoxyphenyl)prop-2-en-1-one] | 25.6 ± 0.03 µM | 24.04 ± 0.12 µM | 30.72 ± 0.12 µM |  | 1.65 to 34.3 µM |
| 261 to 263 °C | 0.127 to 0.136 µM and 0.136 µM | 43.4 ± 0.01 µM |  | CCc1nnc2c(Nc3ccc(C(=O)/C=C/c4ccccc4O)cc3)nc3ccccc3n12 [Compound 7c, (E)-1-(4-((1-Ethyl-[1,2,4]triazolo[4,3-a]quinoxalin-4-yl)amino)phenyl)-3-(2-hydroxyphenyl)prop-2-en-1-one] | 19.8 ± 0.23 µM | 22.17 ± 0.11 µM | 17.32 ± 0.12 µM |  |  |
|  | 0.083 ± 0.04 µM | 14.7 ± 0.11 µM |  | CCc1nnc2c(Nc3ccc(C(=O)/C=C/c4ccc(OC)cc4)cc3)nc3ccccc3n12 [Compound 7e, (E)-1-(4-((1-Ethyl-[1,2,4]triazolo[4,3-a]quinoxalin-4-yl)amino)phenyl)-3-(4-methoxyphenyl)prop-2-en-1-one] | 9.57 ± 0.11 µM | 8.23 ± 0.25 µM | 34.28 ± 0.14 µM |  | 1.65 to 34.3 µM |
| 253 to 255 °C | > 50 µM | > 100 µM |  | CCc1nnc2c(Nc3ccc(C(=O)/C=C/c4ccc(O)cc4)cc3)nc3ccccc3n12 [Compound 7f, (E)-1-(4-((1-Ethyl-[1,2,4]triazolo[4,3-a]quinoxalin-4-yl)amino)phenyl)-3-(4-hydroxyphenyl)prop-2-en-1-one] | 18.1 ± 0.15 µM | > 100 µM | > 100 µM |  |  |
|  | 0.039 µM | 8.84 ± 0.02 µM | 8.4 µM | CCc1nnc2c(Nc3ccc(C(=O)/C=C/c4cc(OC)c(OC)c(OC)c4)cc3)nc3ccccc3n12 [Compound 7g, (E)-1-(4-((1-Ethyl-[1,2,4]triazolo[4,3-a]quinoxalin-4-yl)amino)phenyl)-3-(3,4,5-trimethoxyphenyl)prop-2-en-1-one] | 3.61 ± 0.18 µM | 1.65 ± 0.13 µM | 8.58 ± 0.06 µM |  | 1.65 to 34.3 µM |
| 260 to 262 °C | > 100 µM | > 100 µM |  | CCc1nnc2c(Nc3ccc(C(=O)/C=C/c4ccc([N+](=O)[O-])cc4)cc3)nc3ccccc3n12 [Compound 7h, (E)-1-(4-((1-Ethyl-[1,2,4]triazolo[4,3-a]quinoxalin-4-yl)amino)phenyl)-3-(4-nitrophenyl)prop-2-en-1-one] | > 100 µM | > 100 µM | > 100 µM |  |  |
| 255 to 257 °C | > 100 µM | > 100 µM |  | CCc1nnc2c(Nc3ccc(C(=O)/C=C/c4ccc(Cl)cc4)cc3)nc3ccccc3n12 [Compound 7i, (E)-3-(4-Chlorophenyl)-1-(4-((1-ethyl-[1,2,4]triazolo[4,3-a]quinoxalin-4-yl)amino)phenyl)prop-2-en-1-one] | > 100 µM | > 100 µM | > 100 µM |  |  |
